BindingDB's records for doi:10.1016/0960-894X(96)00081-9 (1996)

Experiments:
[1] = biological target: T1, Alpha-1A/Alpha-1B/Alpha-1D adrenergic receptor (Rattus norvegicus, UniProt P15823+P43140+P23944); assay: Binding affinity at Alpha-1 adrenergic receptor in rat cerebral cortex membranes by [3H]prazosin displacement.
T1 sequence (P15823 whole entry): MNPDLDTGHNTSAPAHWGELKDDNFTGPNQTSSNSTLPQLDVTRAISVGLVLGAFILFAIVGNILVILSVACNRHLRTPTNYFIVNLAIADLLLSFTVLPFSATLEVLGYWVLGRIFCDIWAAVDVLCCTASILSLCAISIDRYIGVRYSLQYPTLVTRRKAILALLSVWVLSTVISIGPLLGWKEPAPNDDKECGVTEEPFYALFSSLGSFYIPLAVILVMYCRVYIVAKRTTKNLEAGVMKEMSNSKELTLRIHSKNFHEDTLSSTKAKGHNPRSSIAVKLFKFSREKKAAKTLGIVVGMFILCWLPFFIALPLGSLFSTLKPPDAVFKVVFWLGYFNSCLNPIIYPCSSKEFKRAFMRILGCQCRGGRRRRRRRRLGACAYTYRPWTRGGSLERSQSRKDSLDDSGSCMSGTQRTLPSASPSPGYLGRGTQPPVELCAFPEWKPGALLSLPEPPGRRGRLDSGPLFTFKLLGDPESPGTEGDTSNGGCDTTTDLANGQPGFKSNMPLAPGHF
T1 sequence (P43140 whole entry): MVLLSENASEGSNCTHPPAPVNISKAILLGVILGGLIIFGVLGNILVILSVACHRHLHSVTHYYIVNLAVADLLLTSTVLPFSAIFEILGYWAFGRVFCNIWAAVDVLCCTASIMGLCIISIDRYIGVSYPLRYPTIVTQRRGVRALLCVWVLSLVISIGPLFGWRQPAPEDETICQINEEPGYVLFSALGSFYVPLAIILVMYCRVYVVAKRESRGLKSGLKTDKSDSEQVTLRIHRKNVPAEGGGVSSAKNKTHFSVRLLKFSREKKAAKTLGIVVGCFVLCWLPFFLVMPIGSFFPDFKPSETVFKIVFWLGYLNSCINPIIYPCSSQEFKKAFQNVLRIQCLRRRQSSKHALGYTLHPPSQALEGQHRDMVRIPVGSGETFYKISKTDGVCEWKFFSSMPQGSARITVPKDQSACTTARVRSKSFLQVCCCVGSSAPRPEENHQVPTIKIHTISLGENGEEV
T1 sequence (P23944 whole entry): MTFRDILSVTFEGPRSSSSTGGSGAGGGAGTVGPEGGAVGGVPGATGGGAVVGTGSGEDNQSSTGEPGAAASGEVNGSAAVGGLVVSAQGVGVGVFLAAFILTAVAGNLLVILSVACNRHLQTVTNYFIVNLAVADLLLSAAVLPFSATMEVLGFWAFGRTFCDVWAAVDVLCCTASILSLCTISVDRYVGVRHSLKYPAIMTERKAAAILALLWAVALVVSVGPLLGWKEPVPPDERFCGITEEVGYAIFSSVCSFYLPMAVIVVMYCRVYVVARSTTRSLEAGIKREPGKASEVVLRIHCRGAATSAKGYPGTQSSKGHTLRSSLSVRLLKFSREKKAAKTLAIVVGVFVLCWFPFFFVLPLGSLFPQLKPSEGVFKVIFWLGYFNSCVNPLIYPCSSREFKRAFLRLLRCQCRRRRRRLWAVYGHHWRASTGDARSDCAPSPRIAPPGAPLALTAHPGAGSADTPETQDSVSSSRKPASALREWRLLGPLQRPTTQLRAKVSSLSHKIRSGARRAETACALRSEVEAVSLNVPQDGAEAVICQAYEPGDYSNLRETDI

[2] = biological target: T2, 5-hydroxytryptamine receptor 1A (Rattus norvegicus, UniProt P19327); assay: ChEBML_841
T2 sequence (P19327 whole entry): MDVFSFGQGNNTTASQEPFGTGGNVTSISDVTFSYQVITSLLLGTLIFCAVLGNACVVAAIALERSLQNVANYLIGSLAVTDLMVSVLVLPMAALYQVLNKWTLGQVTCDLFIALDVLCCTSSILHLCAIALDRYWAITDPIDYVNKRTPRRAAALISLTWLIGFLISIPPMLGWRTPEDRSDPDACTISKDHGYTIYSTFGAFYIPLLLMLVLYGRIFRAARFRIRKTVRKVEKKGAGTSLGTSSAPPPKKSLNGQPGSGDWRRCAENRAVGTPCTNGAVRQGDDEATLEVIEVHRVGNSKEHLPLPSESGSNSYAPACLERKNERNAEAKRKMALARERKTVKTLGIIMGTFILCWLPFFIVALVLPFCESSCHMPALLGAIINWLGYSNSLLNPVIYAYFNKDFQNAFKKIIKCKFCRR
Description: Compound was evaluated for its ability to displace [3H]8-OH-DPAT from serotonin 5-hydroxytryptamine 1A receptor in rat cerebral cortex membranes

| Ki [1] | Ki [2] | Structure (SMILES) |
| --- | --- | --- |
| > 1000 nM |  | COc1ccccc1N1CCN(Cn2c(O)c3n(c2=O)CCCC3)CC1 [2-[4-(2-Methoxy-phenyl)-piperazin-1-ylmethyl]-tetrahydro-imidazo[1,5-a]pyridine-1,3-dione] |
| 19 nM |  | O=c1n(CCCCN2CCN(c3ccccc3)CC2)c(O)c2n1CCCC2 [2-[4-(4-Phenyl-piperazin-1-yl)-butyl]-tetrahydro-imidazo[1,5-a]pyridine-1,3-dione] |
| 18 nM | 54 nM | O=c1n(CCCN2CCN(c3cccc(Cl)c3)CC2)c(O)c2n1CCCC2 [2-{3-[4-(3-Chloro-phenyl)-piperazin-1-yl]-propyl}-tetrahydro-imidazo[1,5-a]pyridine-1,3-dione] |
